Test results published in patent publication US9504660B2, “Retinaldehyde mimetics and inhibitors of retinaldehyde dehydrogenase I in the treatment of disorders” (THE BRIGHAM AND WOMEN'S HOSPITAL, INC., priority 2012, dated 2016).

What was measured:
UCP-1 [1] = assay: UCP-1 gene expression in 10T1/2 cells during adipogenic differentiation; assay type: cell-based, murine; conditions: for effect on Rald-mediated UCP-1 expression: antagonist with Rald
Protocol: (§1) C3H10T1/2, isolated human stromal-vascular cells and Aldh1a1^−/− MEFs were cultured and differentiated as previously described^8. Briefly, cells were grown to confluence in DMEM, 10% fetal bovine serum (FBS) and 1% penicillin/streptomycin followed by standard adipogenic induction (20 nM insulin, 1 nM T3, 0.5 mM isobutylmethylxanthine, […], 0.125 mM indomethacin) and stimulation with retinoids, retinoid antagonists or vehicle (DMSO) as indicated. After a 48 h induction phase, growth media was supplemented with insulin, T3, and indicated retinoids which were changed every other day up to day 6.
(§2) Total RNA was extracted (RNeasy, Qiagen, Hi[den, Germany), DNase-treated (Qiagen), and reverse-transcribed to cDNA. Gene expression, normalized to 36B4, was analyzed by quantitative real-time RT-PCR (Sybr Green, 96 well plates) using a MyiQ cycler (Bio-Rad, Hercules, Calif.). Primer sequences are available upon request.

3T3-L1 cells = conditions: reference 16; cited from earlier work
[2] = system: retinoic acid response element (RARE) luciferase reporter; assay: RARE luciferase reporter in undifferentiated 10T1/2 cells; assay type: cell-based, murine; conditions: 24 h, concentration-dependent
Protocol: (§3) Cell lysates were harvested 48 h post transfection and luciferase activity quantified by standard luminometer assay and normalized to 3-galactosidase.

UCP-1 promoter = UCP-1 promoter luciferase reporter in undifferentiated 10T1/2 cells; assay type: cell-based, murine; conditions: 24 h, increasing concentrations / 1 pM
Protocol: as §3

[3] = system: RXRa ligand binding domain (LBD); assay: Cell-free TR-FRET assay, PGC-1a recruitment to RXRa LBD; assay type: biochemical
UCP-1 [4] = assay: UCP-1 expression in differentiating human stromal-vascular cells from subcutaneous fat biopsies; assay type: cell-based; conditions: 1 pM during differentiation
Protocol: (§4) Abdominal subcutaneous fat biopsies were obtained from a subject undergoing gastric bypass surgery who gave written informed consent. Fat biopsies were immediately washed with phosphate buffered saline (PBS), minced, and digested (1 mg/mi collagenase, 45 min, 37° C.) in DMEM containing 1% BSA. Digested tissues were filtered through sterile 150 µm nylon mesh and centrifuged (250 g, 5 min). The floating fractions containing adipocytes were discarded and they stromal-vascular fraction pellet was resuspended in erythrocyte lysis buffer (154 mM NH4CI, 10 mM KHCO3, 0.1 mM EDTA, 10 min) to remove red blood cells. The cells were further centrifuged at 500 g for 5 min, plated on a 24-well culture dish and grown, and differentiated to mature adipocytes as described below. MEFs were isolated from Aldh1a1^−/− embryos at embryonic day 14.5 using standard tech niques^43.
(§5) C3H10T1/2, isolated human stromal-vascular cells and Aldh1a1^−/− MEFs were cultured and differentiated as previously described^8. […]
(§6) Total RNA was extracted (RNeasy, Qiagen, Hi[den, Germany), DNase-treated (Qiagen), and reverse-transcribed to cDNA. Gene expression, normalized to 36B4, was analyzed by quantitative real-time RT-PCR (Sybr Green, 96 well plates) using a MyiQ cycler (Bio-Rad, Hercules, Calif.). […]

UCP-1 [5] = assay: UCP-1 gene expression in Aldh1a1-/- mouse embryonic fibroblast (MEF)-derived adipocytes; assay type: cell-based; conditions: stimulation 24 h, versus vehicle-treated cells
Protocol: as §4, §5, §6

RAR = conditions: ligand displacement assays, reference 37; cited from earlier work
UCP-1 [6] = assay: UCP-1 mRNA in shAldh1a1-transfected 10T1/2 cells; assay type: cell-based, murine; conditions: Rald stimulation (1 pM) in shAldh1a1-treated 10T1/2 cells
Protocol: as §1
Mission® shRNA constructs targeting Aldh1a1 and a non-targeting control shRNA were purchased from Sigma. To generate lentivirus particles, shRNA constructs were transfected into HEK293TN cells (SA Biosciences, Frederick, Md.) along with the packaging vectors psPAX and pM2DG. After 72 h, virus-containing supernatant was precipitated using polyethylene glycol (SA Biosciences) and concentrated in PBS (30×). […]
as §6

UCP-1 promoter region = assay: Chromatin immunoprecipitation (ChIP) at the UCP-1 promoter region in 10T1/2 cells; assay type: cell-based, mouse
Protocol: ChIP was performed in Rald versus vehicle stimulated C3H10T1/2 adipocytes using EZ-Magna ChIP™ kit following manufacturer's instructions (Millipore, Billerica, Mass.) and RARa, PGC-1a, or rabbit lgG antibodies as a negative control (all Santa Cruz). lmmunoprecipitated DNA was amplified by real-time PCR using primers specific for the mouse UCP-1 promoter region. Relative PGC-la and RARa occupancy at the UCP-1 promoter was determined normalized to input DNA

[7] = target: T1, RARa ligand binding domain (LBD) (Homo sapiens, UniProt P10276); assay: Cell-free TR-FRET assay, PGC-1a recruitment to RARa LBD; assay type: biochemical
T1 construct: purchased Invitrogen
T1 sequence (P10276 183-417 limits assumed): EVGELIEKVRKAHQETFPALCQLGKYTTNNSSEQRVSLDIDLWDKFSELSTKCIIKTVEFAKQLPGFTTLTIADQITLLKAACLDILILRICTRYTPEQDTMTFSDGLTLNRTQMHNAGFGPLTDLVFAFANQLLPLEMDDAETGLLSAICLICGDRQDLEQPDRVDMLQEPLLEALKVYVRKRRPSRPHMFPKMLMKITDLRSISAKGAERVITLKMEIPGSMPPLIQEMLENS
Protocol: Lanthascreen” TR-FRET RARa and RXR13 coactivator assays (Invitrogen) were performed as per manufacturer protocol using a PerkinElmer (Waltham, Mass.) EnVision™ fluorescence plate reader.

Aldh1a1 = Aldh1a1 expression in tissues of ASO-treated C57Bl/6J mice; assay type: in vivo
Protocol: (§7) Aldh1a1-deficient (Aldh1a1^4″) mice were backcrossed to a C57BL/6J background (>20 generations). Mice were kept on a standard chow diet with a Vitamin A content of 15 IU/g or on high-fat diet (60% kcal fat, Research Diets, New Brunswick, N.J.) as indicated. Mice had free access to food and water except as indicated under Harvard Medical School Institutional Animal Care and Use Committee guidelines. Experiments were conducted using 12-14 week old female mice unless otherwise indicated.
(§8) An ASO targeting murine Aldh1a1 and a control ASO not hybridizing to any known murine RNA sequences were synthesized and purified by Isis Pharmaceuticals Inc. (Carlsbad, Calif.) as described previously^39. In vitro characterization including knockdown validation of the Aldh1a1 ASO was done in murine primary hepatocytes. ASOs (70 mg/kg/wk) were administered via intraperitoneal (i.p.) injection twice weekly.
as §2
Homogenized tissue was lysed in RIPA buffer (Boston Bioproducts, Ashland, Mass.) containing protease and phosphatase inhibitors. Standard Western blotting was performed using rabbit polyclonal antibody against UCP-1, rabbit monoclonal antibody against Aldh1a1 (both Abcam, Cambridge, UK), GAPDH and f3-Tubulin (both Santa Cruz Biotechnology). Proteins were detected by chemiluminescence (GE HealthCare Amersham, Amersham, UK).

[8] = Established diet-induced obesity in high-fat diet fed C57Bl/6J mice, body weight and fat depot mass; assay type: in vivo; conditions: HFD 8 weeks before treatment, continued HFD additional 9 weeks, compared to control ASO
Protocol: as §7, §8

[9] = Glucose and insulin tolerance tests in high-fat diet fed obese mice; assay type: in vivo; conditions: HFD obese mice, compared to control ASO
Protocol: as §8
Glucose (GTT) and insulin tolerance tests (ITT) were performed on mice after fasting (12 h and 6 h, respectively). Mice were injected i.p. either with D-glucose (Sigma, 0.75 g/kg body weight) or recombinant human regular insulin (0.5 U/kg body weight, Humulin R, Eli Lilly, Indianapolis, Ind.); blood glucose concentrations were measured periodically up to 120 min by glucometer (Abbott Laboratories, Abbott Park, Ill.).

[10] = Core body temperature under ambient and cold-induced conditions in ASO-treated mice; assay type: in vivo; conditions: versus Ctrl ASO-treated mice
Protocol: as §8
Core body temperature was assessed in mice as before^49,41. WT and Aldh1a1^−/− mice (12 week old, n=6/group) were anesthetized (Ketamine/Xylazine/Acepromazine, 100/10/3 mg/kg i.p.) and a telemetric temperature probe (E-mitter, MiniMitter, Bend, Oreg.) was implanted intra-abdominally. One week after surgery, mice were single-housed in open-circuit Oxymax chambers as part of the Comprehensive Lab Animal Monitoring System (CLAMS; Columbus Instruments, Columbus, Ohio)^42. Oxymax chambers were kept in a temperature enclosure with 12 h light/dark cycles at 23° C. and mice had ad-libitum access to food and water. After a 48 h acclimatization phase, core body temperature was recorded every 10 min for 48 h at ambient temperature (23° C.), followed by 48 h cold stimulation (4° C.). After sacrifice, fat depots were dissected and analyzed.

UCP-1 [11] = assay: UCP-1 expression in fat depots of ASO-treated C57Bl/6J mice; assay type: in vivo; conditions: chow-fed mice, i.p. 35 mg/kg/dose twice a week for 6 weeks
Protocol: as §7, §8, §6
Homogenized tissue was lysed in RIPA buffer (Boston Bioproducts, Ashland, Mass.) containing protease and phosphatase inhibitors. […] Proteins were detected by chemiluminescence (GE HealthCare Amersham, Amersham, UK).

RXR = assay: 9cisRA-induced Cyp26a1 expression in 10T1/2 cells; assay type: cell-based, murine; conditions: data not shown
Protocol: as §1, §2

[12] = each 1 pM, differentiating 10T1/2 cells
[13] = 1 pM during adipogenic differentiation
[14] = chow-fed mice, i.p. 35 mg/kg/dose twice a week for 6 weeks, compared to Ctrl ASO

Q: With Cc1ccc(C2=CCC(C)(C)c3ccc(C#Cc4ccc(C(=O)O)cc4)cc32)cc1 [AGN193109, reference compound] as the compound, how does the “effect on Rald-mediated UCP-1 expression” value (UCP-1 [1]; [12]) read?
A: Its value is “completely inhibited”.

Q: What does the source list for CC1=C(/C=C/C(C)=C/C=C/C(C)=C/C=O)C(C)(C)CCC1 [Rald, all trans-Retinal]?
A: expression of other BAT markers including PGC-16, PRDM16, and Cidea (UCP-1 [1]; [13]): induced; expression of the adipogenic gene aP2 (UCP-1 [1]; [13]): remained unaltered; UCP-1 expression induction (UCP-1 [1]; 1 pM during adipogenic differentiation of 10T1/2 cells (white adipocytes)): 100 fold; UCP-1 expression (UCP-1 [1]; co-stimulation with the Aldh inhibitor DEAB, each 1 pM, differentiating 10T1/2 cells): to the same extent as Rald alone; adipogenesis in 3T3-L1 cells (3T3-L1 cells): inhibitor; activity of a canonical RARE luciferase reporter [2]: significantly increased; UCP-1 promoter luciferase activity (UCP-1 promoter): increased; PGC-1a recruitment to RXRa [3]: virtually no effect; UCP-1 expression (UCP-1 [4]): significantly increased; UCP-1 gene expression increase (UCP-1 [5]): 40 fold; binding to RAR (RAR): can bind; UCP-1 mRNA expression increase (UCP-1 [6]): 100 fold; PGC-1a occupancy at the UCP-1 promoter region, enrichment (UCP-1 promoter region; Rald 1 pM during adipocyte differentiation): 5 fold; RARa signal at the UCP-1 promoter (UCP-1 promoter region; after stimulation, versus basal conditions): did not increase further; EC50 [7]: 82 nM; PGC-1a recruitment to RARa [7]: effectively recruited

Q: For CC1=C(/C=C/C(C)=C\C=C\C(C)=C\C(=O)O)C(C)(C)CCC1 [9cisRA, reference compound], which “PGC-1a recruitment to RXRa” value [3] is on record?
A: The value was “potently recruited”.

Q: Which “activity of a canonical RARE luciferase reporter” value [2] does the source give for CC1=C(/C=C/C(C)=C/C=C/C(C)=C/C(=O)O)C(C)(C)CCC1 [ATRA, all-trans RA, reference compound] here?
A: The value was “significantly increased”.

Q: For “Aldh1a1 ASO: ASO targeting murine Aldh1a1, synthesized by Isis Pharmaceuticals; sequence AACACGACTATGCTGGTTAC (SEQ ID NO: 01) (listed as DNA, chemistry not given here)”, which “Aldh1a1 expression in subcutaneous WAT” value (Aldh1a1; administered systemically) is on record?
A: Its value is “no effect”.

Q: What about the “Aldh1a1 expression in visceral WAT” value (Aldh1a1; administered systemically) of the same compound?
A: The value was “decrease”.

Q: And the “Aldh1a1 expression in SWAT, BAT, spleen, intestine, and skeletal muscle” value (Aldh1a1; [14])?
A: The value was “remained unchanged”.

Q: What about the “Aldh1a1 mRNA and protein levels in liver and GWAT” value (Aldh1a1; [14]) of the same compound?
A: The value was “significantly decreased”.

Q: And the GWAT mass [8]?
A: The GWAT mass was “decreased”.

Q: What about the “weight gain in obese mice” value [8] of the same compound?
A: Its value is “significantly limited”.

Q: And the glucose tolerance [9]?
A: The glucose tolerance was “improved”.

Q: What about the insulin tolerance [9] of the same compound?
A: The insulin tolerance was “improved”.

Q: What about the “core body temperature on cold exposure” value ([10]; 4° C., 48 h) of the same compound?
A: Its value is “protected significantly”.

Q: And the “core body temperature at ambient temperature” value ([10]; 23° C.)?
A: Its value is “did not differ”.

Q: What about the “UCP-1 expression in GWAT” value (UCP-1 [11]) of the same compound?
A: Its value is “significantly increased”.

Q: And the “UCP-1 expression in SWAT or BAT (significant increase)” value (UCP-1 [11])?
A: The value was “not”.

Q: With CN1c2ccc([N+](=O)[O-])cc2N=C(c2ccc(C(=O)O)cc2)c2cc3c(cc21)C(C)(C)CCC3(C)C [HX531, reference compound] as the compound, how does the “effect on Rald-mediated UCP-1 expression” value (UCP-1 [1]; [12]) read?
A: Its value is “did not alter”.

Q: And the “9cisRA-induced expression of the RA target gene Cyp26a1” value (RXR)?
A: Its value is “significantly inhibit”.

Q: Which results are given for CC1=C(/C=C/C(C)=C/C=C/C(C)=C/CO)C(C)(C)CCC1 [retinol]?
A: UCP-1 promoter luciferase activity (UCP-1 promoter): not and failed to induce; binding to RAR (RAR): can bind
